Source: ChEMBL document CHEMBL1201862, “PubChem BioAssay data set” (2004)
Calls of active or inactive are those of the source.

Assays:
[1] = target: G-protein coupled receptor 55 (Homo sapiens, UniProt Q9Y2T6); test: GPR55 antagonists, SAR follow-up, counter-screen for GPR35 antagonist project, imaging, image-based (AID 2397); format: functional
[2] = target: T1, Tyrosine-protein phosphatase non-receptor type 22 (Homo sapiens, UniProt Q9Y2R2); test: SAR LYP1 Fluorescent Assay using OMFP substrate for In Vitro dose response studies - Set 3. [Related pubchem assays (depositor defined):AID1779, AID1784, AID2140, AID2686]; format: functional
T1 sequence (Q9Y2R2 whole entry): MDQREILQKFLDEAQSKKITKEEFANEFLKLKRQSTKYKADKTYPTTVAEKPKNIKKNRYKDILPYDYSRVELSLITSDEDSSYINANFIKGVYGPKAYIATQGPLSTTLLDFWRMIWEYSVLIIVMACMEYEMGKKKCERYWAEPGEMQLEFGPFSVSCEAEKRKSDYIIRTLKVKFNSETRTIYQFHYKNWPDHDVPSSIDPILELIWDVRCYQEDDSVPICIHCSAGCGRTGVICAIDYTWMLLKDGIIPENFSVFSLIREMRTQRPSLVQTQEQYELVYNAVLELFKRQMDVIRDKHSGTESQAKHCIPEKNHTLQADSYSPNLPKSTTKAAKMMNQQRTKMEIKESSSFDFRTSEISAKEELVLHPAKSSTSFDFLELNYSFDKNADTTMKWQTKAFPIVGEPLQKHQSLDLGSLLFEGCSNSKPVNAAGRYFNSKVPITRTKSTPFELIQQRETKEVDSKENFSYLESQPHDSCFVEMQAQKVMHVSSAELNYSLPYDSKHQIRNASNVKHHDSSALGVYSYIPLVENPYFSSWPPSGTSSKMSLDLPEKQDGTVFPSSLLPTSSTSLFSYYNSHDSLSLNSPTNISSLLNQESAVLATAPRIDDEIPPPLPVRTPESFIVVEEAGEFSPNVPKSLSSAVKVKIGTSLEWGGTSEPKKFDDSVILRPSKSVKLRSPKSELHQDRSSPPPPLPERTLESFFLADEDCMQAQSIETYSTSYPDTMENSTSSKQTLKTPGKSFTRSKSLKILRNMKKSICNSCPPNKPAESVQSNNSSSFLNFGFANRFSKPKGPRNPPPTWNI

[3] = target: T2, Tyrosine-protein phosphatase non-receptor type 7 (Homo sapiens, UniProt P35236); test: HePTP (PTPN7) phosphatase inhibitor potency, SAR follow-up, biochemical, set 2 (AID 449736); format: functional
T2 sequence (P35236 whole entry): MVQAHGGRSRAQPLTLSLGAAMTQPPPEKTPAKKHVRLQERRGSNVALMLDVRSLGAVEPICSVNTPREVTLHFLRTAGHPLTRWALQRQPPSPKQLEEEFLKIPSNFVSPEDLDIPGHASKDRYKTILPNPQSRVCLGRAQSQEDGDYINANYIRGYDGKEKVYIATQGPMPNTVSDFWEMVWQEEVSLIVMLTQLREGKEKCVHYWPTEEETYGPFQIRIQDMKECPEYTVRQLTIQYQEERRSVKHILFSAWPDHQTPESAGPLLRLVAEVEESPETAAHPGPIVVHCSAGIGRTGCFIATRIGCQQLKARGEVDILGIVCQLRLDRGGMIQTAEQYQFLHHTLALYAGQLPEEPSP

[4] = target: T3, Tyrosine-protein phosphatase non-receptor type 12 (Homo sapiens, UniProt Q05209); test: SAR Selectivity Analysis of small molecule inhibitors of PEST using pCAP in a fluorescence assay. [Related pubchem assays (depositor defined):AID1779, AID1784, AID2135]; format: functional
T3 sequence (Q05209 whole entry): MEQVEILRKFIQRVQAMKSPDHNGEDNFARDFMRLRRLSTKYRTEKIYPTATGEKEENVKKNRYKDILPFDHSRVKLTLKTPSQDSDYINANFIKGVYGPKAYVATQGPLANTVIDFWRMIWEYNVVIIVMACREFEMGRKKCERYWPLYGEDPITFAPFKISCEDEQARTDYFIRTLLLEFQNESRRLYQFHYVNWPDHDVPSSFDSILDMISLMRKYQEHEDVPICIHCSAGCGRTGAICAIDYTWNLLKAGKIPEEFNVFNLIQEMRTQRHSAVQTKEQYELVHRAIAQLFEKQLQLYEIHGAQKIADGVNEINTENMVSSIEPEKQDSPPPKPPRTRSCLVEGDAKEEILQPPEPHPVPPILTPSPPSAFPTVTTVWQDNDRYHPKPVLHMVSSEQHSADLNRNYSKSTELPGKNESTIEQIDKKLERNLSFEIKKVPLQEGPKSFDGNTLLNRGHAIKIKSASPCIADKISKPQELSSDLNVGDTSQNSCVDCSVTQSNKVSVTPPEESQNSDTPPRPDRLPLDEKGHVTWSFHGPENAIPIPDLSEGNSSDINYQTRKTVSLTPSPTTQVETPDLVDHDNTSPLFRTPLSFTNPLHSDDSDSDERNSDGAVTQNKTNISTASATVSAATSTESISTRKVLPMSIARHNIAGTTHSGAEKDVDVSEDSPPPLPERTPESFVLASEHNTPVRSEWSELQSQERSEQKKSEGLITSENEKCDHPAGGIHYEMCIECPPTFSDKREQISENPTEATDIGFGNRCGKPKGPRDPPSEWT

[5] = target: T1, Tyrosine-protein phosphatase non-receptor type 22; test: LYP (PTPN22) phosphatase inhibitor potency, SAR follow-up, biochemical, pCAP fluorogenic substrate, fluorescence, set 3 (AID 449727); format: functional
[6] = target: T4, G-protein coupled receptor 35 (Homo sapiens, UniProt Q9HC97); test: GPR35 antagonists blocking zaprinast-driven arrestin recruitment, primary screen, imaging, U2OS, beta-arrestin-GFP, zaprinast agonist (AID 2058); format: functional;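 note: antagonist potency meaning inhibition of agonist-induced arrestin redistribution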
T4 sequence (Q9HC97 whole entry): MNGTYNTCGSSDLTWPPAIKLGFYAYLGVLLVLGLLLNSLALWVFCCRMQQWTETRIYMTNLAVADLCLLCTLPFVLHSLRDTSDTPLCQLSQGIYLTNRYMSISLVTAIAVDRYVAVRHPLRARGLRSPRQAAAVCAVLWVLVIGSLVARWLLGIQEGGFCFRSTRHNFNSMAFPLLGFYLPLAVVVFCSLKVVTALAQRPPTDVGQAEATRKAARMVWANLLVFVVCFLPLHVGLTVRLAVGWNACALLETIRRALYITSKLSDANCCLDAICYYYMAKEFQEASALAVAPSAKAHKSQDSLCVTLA

[7] = target: T4, G-protein coupled receptor 35; test: SAR Analysis for the identification of Selective Antagonists of ERK1/2 Activity in GPR35-Overexpressing U2OS Cells. [Related pubchem assays: 2079, 2058 ]; format: functional, cell-based
Keap1/Nrf2 = Keap1/Nrf2 (Homo sapiens, UniProt Q14145); test: Keap1-Nrf2 protein-protein interaction inhibitors, dose response, biochemical, fluorescence polarization, cherry-picked samples (AID 588683)
Sequence of Keap1/Nrf2 (Q16236 whole entry): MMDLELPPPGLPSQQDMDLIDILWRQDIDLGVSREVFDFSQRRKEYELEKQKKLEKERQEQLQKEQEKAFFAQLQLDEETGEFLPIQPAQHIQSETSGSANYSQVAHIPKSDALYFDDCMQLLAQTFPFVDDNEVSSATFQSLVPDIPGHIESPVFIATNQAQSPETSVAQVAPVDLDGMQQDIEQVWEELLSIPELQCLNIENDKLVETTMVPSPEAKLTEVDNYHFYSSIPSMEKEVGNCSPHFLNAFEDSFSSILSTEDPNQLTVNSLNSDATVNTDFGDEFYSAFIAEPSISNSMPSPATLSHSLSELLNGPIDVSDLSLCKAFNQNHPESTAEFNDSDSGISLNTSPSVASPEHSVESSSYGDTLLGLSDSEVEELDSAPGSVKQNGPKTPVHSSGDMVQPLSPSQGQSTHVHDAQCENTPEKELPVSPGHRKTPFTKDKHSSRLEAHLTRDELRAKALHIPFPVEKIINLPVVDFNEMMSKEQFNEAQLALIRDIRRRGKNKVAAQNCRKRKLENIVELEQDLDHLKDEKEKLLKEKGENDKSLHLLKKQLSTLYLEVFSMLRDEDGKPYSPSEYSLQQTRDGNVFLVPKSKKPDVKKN
Sequence of Keap1/Nrf2 (Q14145 whole entry): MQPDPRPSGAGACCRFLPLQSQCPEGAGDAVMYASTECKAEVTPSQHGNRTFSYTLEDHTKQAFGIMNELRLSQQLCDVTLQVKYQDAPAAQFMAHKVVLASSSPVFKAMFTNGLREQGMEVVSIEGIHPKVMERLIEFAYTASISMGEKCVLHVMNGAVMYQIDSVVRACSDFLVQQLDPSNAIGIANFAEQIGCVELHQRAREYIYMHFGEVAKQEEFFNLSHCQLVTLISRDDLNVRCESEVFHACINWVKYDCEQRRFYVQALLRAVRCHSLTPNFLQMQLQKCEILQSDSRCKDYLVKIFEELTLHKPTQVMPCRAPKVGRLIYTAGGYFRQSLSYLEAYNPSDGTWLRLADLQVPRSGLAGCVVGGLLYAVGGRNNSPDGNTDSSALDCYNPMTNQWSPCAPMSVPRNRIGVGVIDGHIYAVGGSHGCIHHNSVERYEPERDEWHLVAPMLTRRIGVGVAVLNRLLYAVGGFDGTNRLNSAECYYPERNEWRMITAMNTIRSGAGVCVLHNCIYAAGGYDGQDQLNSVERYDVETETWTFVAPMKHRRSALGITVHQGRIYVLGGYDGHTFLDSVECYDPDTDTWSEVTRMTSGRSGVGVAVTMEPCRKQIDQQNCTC

Sequence of G-protein coupled receptor 55 (Q9Y2T6 whole entry): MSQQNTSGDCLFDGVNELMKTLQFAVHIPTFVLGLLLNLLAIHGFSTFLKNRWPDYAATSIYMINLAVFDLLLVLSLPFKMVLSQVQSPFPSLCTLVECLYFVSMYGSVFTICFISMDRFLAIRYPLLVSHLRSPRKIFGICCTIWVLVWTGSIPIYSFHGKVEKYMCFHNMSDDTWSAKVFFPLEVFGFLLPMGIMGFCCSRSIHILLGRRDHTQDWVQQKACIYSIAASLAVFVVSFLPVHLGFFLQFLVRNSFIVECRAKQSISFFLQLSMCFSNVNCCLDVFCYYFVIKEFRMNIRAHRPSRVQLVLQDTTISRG

| IC50 [1] | IC50 [2] | IC50 [3] | IC50 [4] | IC50 [5] | IC50 [6] | IC50 [7] | AC50 (Keap1/Nrf2) | Compound |
| --- | --- | --- | --- | --- | --- | --- | --- | --- |
| > 32 µM (inactive) | 72.2 µM (active) | 1.89 µM (active) | 15.8 µM (active) | 79.5 µM (active) | 1.16 µM (active) | 3.29 µM (active) |  | O=C(CCCN1C(=O)/C(=C\c2ccccc2)SC1=S)Nc1ccc(C(=O)O)cc1 |
|  |  |  |  |  |  |  | > 52 µM (inactive) | COc1cc(OC)c(S(=O)(=O)Nc2ccccc2C(=O)O)cc1S(=O)(=O)Nc1ccccc1C(=O)O |
